Measured values from patent US12662494B2, “Optically active bridged piperidine derivative” (Sumitomo Pharma Co., Ltd., priority 2018, dated 2026).
pIC50: −log10 of the molar value.

How the values were obtained:
MOLM-13 cells = assay: Test 2: inhibition of cell proliferation, MOLM-13; type: cell-based; conditions: 7 days, PrestoBlue cell viability
Protocol: (§1) Test 2: Test for Evaluating the Inhibition of Cell Proliferation
(§2) RS4; 11 cells were obtained from American Type Culture Collection (ATCC). The cells were cultured at 37° C. in the presence of 5% CO2 in RPMI 1640 medium containing 10% fetal bovine serum and 1% penicillin/streptomycin. MOLM-13 cells were separately obtained from DSMZ (Deutsche Sammlung von Mikroorganismen und Zellkulturen GmbH). The cells were cultured at 37° C. in the presence of 5% CO2 in RPMI 1640 medium containing […] and 1% penicillin/streptomycin.
(§3) The cells were plated to a 96-well plate in 2000 cells/well, each test compound was added thereto to adjust the final concentration of DMSO to 0.1% of DMSO, and the cells were cultured for 7 days. After the cultivation, the cell viability was calculated with PrestoBlue™ Cell Viability Reagent (Invitrogen, A13261). The IC50 value was calculated from a survival curve, that corresponds to the concentration of the test compound at which the cell proliferation inhibition rate is 50%.

RS4; 11 cells = assay: Test 2: inhibition of cell proliferation, RS4;11; type: cell-based; conditions: for pIC50: RS4;11 cells, 7 days, PrestoBlue cell viability; for cell proliferation inhibition activity, good (in words) / cell proliferation inhibitory activity, potent (in words): summary of Test 2 table, RS4;11 and MOLM-13
Protocol: as §1, §2, §3

Compound | pIC50 (MOLM-13 cells; Homo sapiens, 168 h) | pIC50 (RS4; 11 cells; Homo sapiens, 168 h) | cell proliferation inhibition activity, good (in words) (RS4; 11 cells) | cell proliferation inhibitory activity, potent (in words) (RS4; 11 cells) | pIC50 (MOLM-13 cells) | pIC50 (RS4; 11 cells)
C=C1C[C@@H]2C[C@H]1[C@@H](C(=O)N1CCC3(CC1)CN(c1c(C(F)(F)F)cnc4sc(CC(F)(F)F)cc14)C3)N2 [Example 23, [(1S,3S,4R)-5-methylidene-2-azabicyclo[2.2.1]heptan-3-yl]{2-[2-(2,2,2-trifluoroethyl)-5-(trifluoromethyl)thieno[2,3-b]pyridin-4-yl]-2,7-diazaspiro[3.5]nonan-7-yl}methanone] | 6.96 | 7.00 | – | – | – | –
[2H]C([2H])=C1C[C@@H]2CC[C@H]1[C@@H](C(=O)N1CC3(C1)CN(c1c(C(F)(F)F)cnc4sc(CC(F)(F)F)cc14)C3)N2 [Example 17, [(1S,3S,4R)-5-(^2H2)methylidene-2-azabicyclo[2.2.2]octan-3-yl]{6-[2-(2,2,2-trifluoroethyl)-5-(trifluoromethyl)thieno[2,3-b]pyridin-4-yl]-2,6-diazaspiro[3.3]heptan-2-yl}methanone] | – | – | good cell proliferation inhibition activity | potent cell proliferation inhibitory activity | – | –
C=C1C[C@@H]2C[C@H]1[C@@H](C(=O)N1CCC3(CC1)CN(c1c(C#N)cnc4sc(CC(F)(F)F)cc14)C3)N2 [Example 26, 4-{7-[(1S,3S,4R)-5-methylidene-2-azabicyclo[2.2.1]heptane-3-carbonyl]-2,7-diazaspiro[3.5]nonan-2-yl}-2-(2,2,2-trifluoroethyl)thieno[2,3-b]pyridine-5-carbonitrile] | 6.52 | 6.52 | – | – | – | –
C=C1C[C@@H]2CC[C@H]1[C@@H](C(=O)N1CCC3(CC1)CN(c1c(C#N)cnc4sc(CC(F)(F)F)cc14)C3)N2 [Example 24, 4-{7-[(1S,3S,4R)-5-(^2H2)methylidene-2-azabicyclo[2.2.2]octane-3-carbonyl]-2,7-diazaspiro[3.5]nonan-2-yl}-2-(2,2,2-trifluoroethyl)thieno[2,3-b]pyridine-5-carbonitrile] | – | – | – | – | > 7.52 | > 7.52
C=C1C[C@@H]2CC[C@H]1[C@@H](C(=O)N1CC3(C1)CN(c1c(C(F)(F)F)cnc4sc(CC(F)(F)F)cc14)C3)N2 [Example 17, [(1S,3S,4R)-5-(^2H2)methylidene-2-azabicyclo[2.2.2]octan-3-yl]{6-[2-(2,2,2-trifluoroethyl)-5-(trifluoromethyl)thieno[2,3-b]pyridin-4-yl]-2,6-diazaspiro[3.3]heptan-2-yl}methanone] | – | – | – | – | > 7.52 | > 7.52
O=C([C@H]1N[C@H]2CC[C@@H]1C[C@@H]2CC1CC1)N1CCC2(CC1)CN(c1c(C(F)(F)F)cnc3sc(CC(F)(F)F)cc13)C2 [Example 22, [(1S,3S,4R,6S)-6-(cyclopropylmethyl)-2-azabicyclo[2.2.2]octan-3-yl]{2-[2-(2,2,2-trifluoroethyl)-5-(trifluoromethyl)thieno[2,3-b]pyridin-4-yl]-2,7-diazaspiro[3.5]nonan-7-yl}methanone] | 7.52 | > 7.52 | good cell proliferation inhibition activity | potent cell proliferation inhibitory activity | – | –
C=C1C[C@@H]2CC[C@H]1[C@@H](C(=O)N1CCC3(CC1)CN(c1c(C(F)(F)F)cnc4sc(CC(F)(F)F)cc14)C3)N2 [Example 21, [(1S,3S,4R)-5-(^2H2)methylidene-2-azabicyclo[2.2.2]octan-3-yl]{2-[2-(2,2,2-trifluoroethyl)-5-(trifluoromethyl)thieno[2,3-b]pyridin-4-yl]-2,7-diazaspiro[3.5]nonan-7-yl}methanone] | – | – | – | – | > 7.52 | > 7.52
N#Cc1cnc2sc(CC(F)(F)F)cc2c1N1CC2(CCN(C(=O)[C@H]3N[C@H]4CC[C@@H]3C[C@@H]4CC3CC3)CC2)C1 [Example 25, 4-{7-[(1S,3S,4R,6S)-6-(cyclopropylmethyl)-2-azabicyclo[2.2.2]octane-3-carbonyl]-2,7-diazaspiro[3.5]nonan-2-yl}-2-(2,2,2-trifluoroethyl)thieno[2,3-b]pyridine-5-carbonitrile] | 7.40 | > 7.52 | good cell proliferation inhibition activity | potent cell proliferation inhibitory activity | – | –
